We go through 15 compounds from US7629368B2, “Nitroderivatives as drugs for diseases having an inflammatory basis” (Nicox S.A., priority 2000, dated 2009).

Molecules are shown by their SMILES. Where a name gives a salt, the structure may show the parent alone.

Experiment [1] relates to liver injury induced by concanavalin A. The experiment in a line: Protection from liver injury induced by concanavalin A. The class given is in vivo. The conditions noted are these: ip, plasmatic glutamic-pyruvic transaminase vs treated control group (=100), 8 hours after concanavalin A 0.3 mg/rat i.v.; for response vs control in vivo at 500 mg/kg: 500 mg/kg intraperitoneal; for response vs control in vivo at 300 mg/kg: 300 mg/kg intraperitoneal; for response vs control in vivo at 200 mg/kg: 200 mg/kg intraperitoneal. The source says:
Determination of the capability of the compounds of the invention to protect the animals from the liver injury induced by concanavalin A.
The model in vivo used in the present example has been described in Tiegs G, Hentshel J, A Wendel. A T cell-dependent experimental liver injury in mice induced by Concanavalin A. J. Clin. Invest. 1992; 90:196-203.
The animals ([…] of Swiss stock weighing about 20 g) are divided in groups of at least No. 10 animals for group.
The animals receive concanavalin and solvent (treated control group), solvent (polyethylene glycol 400-untreated control group), concanavalin and tested compound dissolved in the solvent (treated groups).
Rats are treated intravenously with concanavalin A (0.3 mg/rat), and after 5 minutes they receive by intraperitoneal injection the tested compounds, at the doses reported in Table 1, dissolved in polyethylenglycol 400.
Eight hours after the concanavalin A injection all the animals were sacrificed and the blood collected and examined. The data, reported in Table 1, are expressed as value of the plasmatic glutamic-pyruvic transaminase percentage of the animals treated with the tested compound with respect to the animals of the treated control group.

Experiment [2] relates to Human adenocarcinoma (HT29) cells. Nature of the experiment: Antiproliferative activity in cancerous cells, cellular growth by haemocytometer. The class given is cell-based. The conditions noted are these: 96 hours, controls = 100, read-out: Proliferation %. On the procedure:
Determination of the Antiproliferative Activity of the Compounds of the Invention in Cancerous Cells.
Human adenocarcinoma (HT29) cells taken from colon affected by cancerous process were transferred into plates with 24 wells containing a cellular culture medium formed by 10% of foetal bovine serum, penicillin (50 U/ml), streptomycin ([…]) and PEG 400 (polyethylenglycol). After 24 hours a part of the plates is inoculated with the tested compounds dissolved in the carrier (PEG 400). 96 hours after the inoculation of the compounds the cellular growth was measured by haemocytometer. The results, reported in Table 2, are expressed as percentage of the cellular proliferation with respect to the controls.

Experiment [3] concerns Human adenocarcinoma HT29 cells. The experiment in a line: 3H-timidine incorporation in human adenocarcinoma HT29 cells. The conditions noted are these: 15 hours, cells treated only with Cisplatinum = 100; for timidine incorporation, With 25 μM Cisplatinum: compound 200 μM plus Cisplatinum 25 μM; for timidine incorporation, Without Cisplatinum: compound 200 μM. The class given is cell-based. Here is the method: Determination In Vitro of the Effect of the Compounds of the Invention on the Timidine Incorporation in Human Adeno-Carcinoma HT29 Cells. Human adenocarcinoma cells are sown on plates having 24 wells (2.5×10^5 cells/plate) with a standard culture medium. After 24 hours some plates are inoculated with the tested compounds dissolved in dimethylsulphoxide at a 200 μM concentration and others are treated with the tested compounds dissolved in dimethylsulphoxide at a 200 μM concentration in the presence of a solution of cisplatinum 25 μM. After 15 hours of incubation the plates are put into contact with a solution of ^3H-timidine […] (RAS. 3,000 Ci/mol). The cell monolayer of each plate is first washed twice with a cold saline buffer, then treated with TCA (trichloroacetic acid) at 5% for 10 minutes and then washed three times with absolute alcohol. The cells of each well are dissolved in 500 μl of NaOH 0.1N and the incorporated radioactivity is determined by scintallation counting. The obtained results are reported in Table 4 and expressed as percentage of ^3H-Timidine incorporated in the cells treated with the tested compounds and in the presence of Cisplatinum, considering equal to 100 the amount of ^3H-Timidine incorporated in the cells treated only with Cisplatinum.

For experiment [4], the system named is T24 human epithelial cells of bladder cancer. The experiment in a line: Antiproliferative activity, MTT, bladder cancer line T24. The conditions noted are these: Epithelial cell, 96 h, 4 days, vs DMSO 1%, read-out: Inhibition of the proliferative activity (%); for inhibition at 100 µM: 10^-4 M; for inhibition at 10 µM: 10^-5 M; for inhibition at 1 µM: 10^-6 M. The class given is cell-based. Here is the method:
(§1) Determination of the Antiproliferative Activity of the Compounds of the Invention in Cancerous Epithelial Cells of Bladder and Prostate.
(§2) The experiment was carried out by using three human epithelial cellular lines of the prostate cancer (PNT1A; LLNCaP; PC3) and three human epithelial cellular lines of the bladder cancer (T24; 647V; 1207), the various types of cellular lines are identified on the basis of the characteristics, in particular of the aggressiveness, of the cancerous process.
(§3) The cancerous cells are sown, with an initial concentration of 20,000 cells/cm^2, in plates having 96 wells with a cellular culture medium RPMI added with foetal bovine serum 5% and L-Glutamine 1%. Solutions in dimethylsulphoxide of the tested compounds at three different concentrations (10^−6 M; 10^−5M; 10^−4M) or the carrier (DMSO 1%) are added to the culture medium. 4 days after the treatment the cellular growth was measured by the method with MTT (3-[4,5-dimethylthiazol-2-yl]-2,5-diphenyltetrazolium bromide) de-scribed by Turner in: Turner T., Chen P., Goodly L. J., Wells A. Clin. Exp. Metastasis 1996, 14, 409-418. The results, reported in Table 3, are expressed as inhibition percentage of the cellular proliferation determined by measuring the cellular proliferation in the cellular cultures treated with the tested compounds with respect to that measured in cellular cultures treated with dimethylsulphoxide 1%.

In experiment [5] the test system is PC3 human epithelial cells of prostate cancer. Nature of the experiment: Antiproliferative activity, MTT, prostate cancer line PC3. The class given is cell-based. To be noted: Epithelial cell, 96 h, 4 days, vs DMSO 1%, read-out: Inhibition of the proliferative activity (%); for inhibition at 100 µM: 10^-4 M; for inhibition at 10 µM: 10^-5 M; for inhibition at 1 µM: 10^-6 M. On the procedure:
as §1, §2, §3

Experiment [6] has as its system 1207 human epithelial cells of bladder cancer. Nature of the experiment: Antiproliferative activity, MTT, bladder cancer line 1207. The class given is cell-based. The conditions noted are these: Epithelial cell, 96 h, 4 days, vs DMSO 1%, read-out: Inhibition of the proliferative activity (%); for inhibition at 100 µM: 10^-4 M; for inhibition at 10 µM: 10^-5 M; for inhibition at 1 µM: 10^-6 M. On the procedure: as §1, §2, §3

For experiment [7], the system named is PNT1A human epithelial cells of prostate cancer. The experiment in a line: Antiproliferative activity, MTT, prostate cancer line PNT1A. The class given is cell-based. The conditions noted are these: 96 h, 4 days, vs DMSO 1%, read-out: Inhibition of the proliferative activity (%); for inhibition at 100 µM: 10^-4 M; for inhibition at 10 µM: 10^-5 M; for inhibition at 1 µM: 10^-6 M. On the procedure: as §1, §2, §3

In experiment [8] the test system is 647V human epithelial cells of bladder cancer. Nature of the experiment: Antiproliferative activity, MTT, bladder cancer line 647V. The class given is cell-based. To be noted: 96 h, 4 days, vs DMSO 1%, read-out: Inhibition of the proliferative activity (%); for inhibition at 100 µM: 10^-4 M; for inhibition at 10 µM: 10^-5 M; for inhibition at 1 µM: 10^-6 M. Here is the method:
as §1, §2, §3

Experiment [9] relates to human epithelial cellular lines of the prostate cancer and of the bladder cancer. The experiment in a line: Antiproliferative activity in prostate and bladder cancer lines, summary in words. The class given is cell-based. The conditions noted are these: cellular lines LNCaP and PC3, and 647V, 1207. Here is the method: as §2, §3
The compound of Ex. 7, reported in the Table with the simplified denomination of nitrooxybutyl ester of the aspirin der. with ferulic ac. is active, at 10^−5 concentrations, in prostate tumours as shown by the results obtained on the cellular lines LNCaP and PC3.

The test system of experiment [10] is LNCaP human epithelial cells of prostate cancer. The experiment in a line: Antiproliferative activity, MTT, prostate cancer line LNCaP. The conditions noted are these: 96 h, 4 days, vs DMSO 1%, read-out: Inhibition of the proliferative activity (%); for inhibition at 100 µM: 10^-4 M; for inhibition at 10 µM: 10^-5 M; for inhibition at 1 µM: 10^-6 M. The class given is cell-based. On the procedure: as §1, §2, §3

`CC(=O)Nc1ccc(O)cc1` [Paracetamol, reference compound] returned a response vs control in vivo at 500 mg/kg in experiment [1] of 160%.

As to `CC(=O)Oc1ccccc1C(=O)OCc1ccc(CO[N+](=O)[O-])cn1` [Ex. 3, 2-acetyloxybenzoic acid 5-(nitrooxymethyl)-2-methylpyridinyl ester hydrochloride], in experiment [1], the response vs control in vivo at 300 mg/kg was found to be 5%.

As for `CC(=O)Oc1ccccc1C(=O)O` [Aspirin, Acetylsalicylic Acid, reference compound], the activity at 500 µM in experiment [2] (HT-29, 500 μM) was 100%. This compound also came in with a response vs control in vivo at 300 mg/kg in experiment [1] of 120%. In addition, in [3], the “timidine incorporation, With 25 μM Cisplatinum” value was determined as 100% and the “timidine incorporation, Without Cisplatinum” value was 438%.

On to `COc1cc(/C=C/C(=O)OCCCCO[N+](=O)[O-])ccc1OC(=O)C(C)c1ccc(CC(C)C)cc1` (stereo not drawn) [Ex. 16, Trans-3-[4-[α-methyl-[4-(-2-methylpropyl)benzene]acetyloxy]-3-methoxyphenyl]-2-propenoyl 4-(nitrooxy) butyl ester], for which the inhibition at 100 µM in experiment [4] stood at 22%; in experiment [5], 47%; in experiment [6], 43%; in experiment [7] it was 20%; in [8], 45%; in experiment [10] it was 60%. The inhibition at 10 µM in experiment [4] is 0%; in experiment [5], 9%; in experiment [6], 0%; in experiment [7], 4%; in experiment [8], 0%; in [10], 33%. For the same compound, the inhibition at 1 µM in [4] worked out at 0%; in experiment [5], 4%; in experiment [6], 2%; in experiment [7], 0%; in experiment [8], 0%; in experiment [10], 8%. In addition, in experiment [9], the “activity in very aggressive prostate and bladder tumours (in words)” value is listed as “active”.

In the case of `COc1cc(/C=C/C(=O)Oc2ccc(NC(C)=O)cc2)ccc1OC(=O)CCCO[N+](=O)[O-]` [Ex. 8, trans-3-[4-(4′-nitrooxybutyryloxy)-3-methoxyphenyl]-2-propenoic acid 4-(acetylamino)phenyl ester], the response vs control in vivo at 500 mg/kg in [1] came to 8%.

For `CC1=C(CC(=O)OCc2cccc(CO[N+](=O)[O-])n2)c2cc(F)ccc2/C1=C\c1ccc([S+](C)[O-])cc1` (centres unmarked) [Ex. 19], the response vs control in vivo at 200 mg/kg in [1] was determined as 23%.

As for `CC(=O)Oc1ccccc1C(=O)Oc1ccccc1CO[N+](=O)[O-]` [Ex. 20, 2-acetyloxybenzoic acid 2-(nitrooxymethyl)phenyl ester], the activity at 20 µM in experiment [2] (HT-29, 20 μM) is 50%.

Regarding `O=C(O)c1ccccc1O` [Salicylic acid, Salicylic Acid, reference compound], in experiment [3], the “timidine incorporation, With 25 μM Cisplatinum” value is on record as 100% and the “timidine incorporation, Without Cisplatinum” value is 438%.

As to `COc1cc(/C=C/C(=O)OCCCCO[N+](=O)[O-])ccc1OC(=O)C(C)c1ccc(-c2ccccc2)c(F)c1` (stereo not drawn) [Ex. 17, trans-3-[4-[2-fluoro-α-methyl-(1,1′-biphenyl)-4-acetyloxy]-3-methoxyphenyl]-2-propenoyl 4-(nitrooxy) butyl ester], the inhibition at 100 µM in experiment [4] is 23%; in experiment [5], 53%; in [6], 34%; in [7], 13%; in [8], 41%; in experiment [10], 58%. Further, the inhibition at 10 µM was 0% in experiment [4]; 20% in [5]; 0% in experiment [6]; 2% in experiment [7]; 13% in experiment [8]; 26% in [10]. Further, the inhibition at 1 µM in [4] was 0%; in [5] it was 8%; in [6] it was 0%; in experiment [7], 0%; in experiment [8], 0%; in experiment [10], 1%. In addition, the “activity in very aggressive prostate and bladder tumours (in words)” value in experiment [9] is recorded as “active”.

For the compound `O=C(Oc1cccc(CO[N+](=O)[O-])c1)c1ccccc1O` [Ex. 15, 2-hydroxybenzoic Acid 3-(nitrooxymethyl)phenyl ester], in experiment [3], the “timidine incorporation, With 25 μM Cisplatinum” value is listed as 50% and the “timidine incorporation, Without Cisplatinum” value was 246%.

With `CC(=O)Oc1ccccc1C(=O)OCc1cccc(CO[N+](=O)[O-])n1` [Ex. 1, 2-acetyloxybenzoic acid 6-(nitrooxymethyl)-2-methylpyridinyl ester hydrochloride], the activity at 10 µM in experiment [2] (HT-29, 10 μM) is 0%.

On to `CC(=O)Oc1ccccc1C(=O)OCc1ncccc1CO[N+](=O)[O-]` [Ex. 4, 2-acetyloxybenzoic acid 3-(nitrooxymethyl)-2-methylpyridinyl ester hydrochloride], for which the response vs control in vivo at 300 mg/kg in experiment [1] was 7%.

Consider `CC1=C(CC(=O)O)c2cc(F)ccc2/C1=C\c1ccc([S+](C)[O-])cc1` (centres unmarked) [Sulindac, reference compound], for which the activity at 50 µM in [2] (HT-29, 50 μM) came to 100%. In addition, the response vs control in vivo at 200 mg/kg in experiment [1] turned out to be 115%.

`CC(=O)Nc1ccc(OC(=O)CCCO[N+](=O)[O-])cc1` [Ex. 9, 4-nitrooxybutanoic acid 4′-acetylamino phenyl ester] came in with a response vs control in vivo at 500 mg/kg in experiment [1] of 10%.

`CC(=O)Oc1ccccc1C(=O)Oc1cccc(CO[N+](=O)[O-])c1` [Ex. 5, 3-nitrooxymethylphenyl ester of the 2-acetoxybenzoic acid]: the activity at 300 µM in [2] (HT-29, 300 μM) was determined as 40%. Moreover, in experiment [3], the “timidine incorporation, With 25 μM Cisplatinum” value is 46% and the “timidine incorporation, Without Cisplatinum” value came to 192%.

What is called inhibition is the change of the read-out against control, counted positive when it falls.
